One compound from US12029728B2, “Small molecules with anti-protozoan activity” (New Mexico Tech University Research Park Corporation, priority 2018, dated 2024) can be followed below.

Values after ≈ are worked out from the molar mass of the structure shown.

Experiment [1] concerns T. cruzi epimastigotes. Nature of the experiment: T. cruzi epimastigote toxicity, visually assessed. It counts as cell-based, Trypanosoma cruzi. To be noted: 48 hours at 30° C. The procedure: A 1:20 working dilution of T. cruzi epimastigotes was prepared in LIT1029 medium from a saturated (˜4×10^6 cells/mL) culture. 100 μL of the 1:20 working dilution was plated, and the epimastigotes were incubated with a compound of the disclosure at varying concentrations for 48 hours at 30° C. Following T. cruzi epimastigote treatment with a compound of the disclosure, the toxicity of compounds towards T. cruzi epimastigotes was visually assessed.

Experiment [2] deals with T. cruzi epimastigotes. Nature of the experiment: MIC against T. cruzi epimastigotes, ATP assay. Type of experiment: cell-based. To be noted: Trypanosoma cruzi, 48 hours at 30° C. The procedure: A 1:20 working dilution of T. cruzi epimastigotes was prepared in LIT1029 medium from a saturated (˜4×10^6 cells/mL) culture. 100 μL of the 1:20 working dilution was plated, and the epimastigotes were incubated with 50 μM, 25 μM, 12.5 μM, 6.25 μM, 3.13 μM, 1.5 μM, or 0 μM Compound 2 for 48 hours at 30° C. After incubation with Compound 2, T. cruzi viability was assessed via an ATP assay. […] An increase in relative light units (RLU) indicates the presence of ATP and viable cells. Phenylarsine oxide (PAO) was used as a control.

The next experiment has as its system Jurkat cells. Nature of the experiment: MTT cell survival assay, Jurkat. It counts as cell-based. To be noted: Homo sapiens, 48 hours at 37° C., read-out: IC50 (GI50), cell survival. The procedure:
(§1) The GI50 (IC50), the concentration at which 50% cell survival is seen upon treatment with a compound, was determined for Compound 2 in Jurkat, U87, HeLa, and ARPE cells. Cells were cultured in 96-well plates and incubated with 50 μM, 25 μM, 12.5 μM, 6 μM, 3 μM, 1.5 μM, or 0 μM of Compound 2 for 48 hours at 37° C. Following the incubation period, a 3-(4,5-dimethylthiazol-2-yl)-2,5-diphenyl tetrazolium bromide (MTT) assay was performed. In brief, a 10% volume of MTT was added to each well. Cells were incubated with MTT for 2 hours, at which time cell supernatant was removed and cells were taken into 100 μL DMSO. The absorbance of cell solutions was then read at 595 nm. A decrease in absorbance indicated a decrease in cell survival.

The test system of the next experiment is ARPE cells. The experiment in a line: MTT cell survival assay, ARPE. It counts as cell-based. To be noted: Homo sapiens, 48 hours at 37° C., read-out: IC50 (GI50), cell survival. How it is done: as §1
Experiment [3] relates to T. cruzi-infected VERO cells. The experiment in a line: Treatment of T. cruzi-infected VERO cells, confocal microscopy. To be noted: 5 μM, 5 days. Type of experiment: cell-based, Trypanosoma cruzi. The procedure: 2×10^4 VERO cells were plated in individual confocal dishes and allowed to adhere for 16 hours at 37° C. […] The T. cruzi-infected dishes were incubated with ˜2×10^6 T. cruzi/mL for 24 hours at 37° C. to allow for internalization of parasites. T. cruzi parasites expressed tdTomato, which allowed for visualization of parasites within cells. After the 24-hour T. cruzi incubation period, extracellular parasites were removed from culture dishes. The cells were washed 3 times with cell culture media (10% fetal bovine serum; 1% penicillin/streptomycin). Designated plates were then incubated with 5 μM Compound 2 or 5 μM Compound 7 for 5 days at 37° C. Cells were then fixed in 2% paraformaldehyde and tdTomato fluorescence in cells was assessed via confocal microscopy.

Experiment [4] has as its system T. gondii-infected ARPE cells. Nature of the experiment: Treatment of T. gondii-infected ARPE cells, imaging. It counts as cell-based, Toxoplasma gondii. To be noted: for T. gondii in ARPE cells: 4 days. The procedure:
ARPE cells were cultured at confluency in a 24 well plate. Cells were incubated with T. gondii (ATCC PRA-310) for 1 hour at 37° C. to allow for T. gondii internalization. After the 1-hour T. gondii incubation period, extracellular T. gondii was removed from culture and cells were washed 3 times with cell media. […] Cells were visualized using an EVOS cell imaging system. The effect of a 3-day Compound 2 treatment on T. gondii-infected ARPE cells was also investigated. 2×10^4 ARPE cells were infected with ˜1×10^6 T. gondii parasites as described in the above paragraph. Cells were then incubated with 5 μM Compound 2 for 3 days at 37° C. Following incubation with Compound 2, cells were washed 3 times in cell media, fixed with 4% paraformaldehyde, stained with DAPI, and visualized with confocal microscopy.

The test system of experiment [5] is T. cruzi-infected THP-1 cells. The experiment in a line: T. cruzi-infected THP-1 derived macrophages, confocal microscopy. To be noted: 2 μM, 7 days. Type of experiment: cell-based, Trypanosoma cruzi. How it is done: Macrophages derived by differentiation of THP-1 cells with phorbol myristate acetate were plated in confocal dishes (about 5,000 cells per dish) and incubated overnight at 37° C. Dishes were incubated with T. cruzi amastigotes and trypomastigotes expressing tdTomato (˜2×10^5 cells) for 24 hours at 37° C. Uninfected plates served as controls. After the 24-hour T. cruzi incubation period, parasites were removed, and medium was re-plated with DMEM/F12 culture media with 2 μM Compound 2 (or left untreated as a control) for 7 days at 37° C. Following fixation of cells in 4% paraformaldehyde, tdTomato fluorescence (which is indicative of viable T. cruzi) in cells was then assessed via confocal microscopy.

The test system of a further experiment is L. major-infected MDMs. Nature of the experiment: L. major-infected human MDMs, quantitative cell bioimaging. To be noted: 1 μM, 5 μM, 10 μM. Type of experiment: cell-based, Leishmania major. The procedure:
Human MDMs were cultured on glass slides and incubated with metacyclic L. major for 24 hours to allow for internalization of parasites. After the 24-hour L. major incubation period, extracellular parasites were removed from the culture. 24 hours after the removal of extracellular parasites, infected cells were treated with vehicle control (DMSO), 5 μM MTF, 1 μM Compound 2, 5 μM Compound 2, 10 μM Compound 2, 2 μM Compound 7, or 20 μM Compound 7. Following treatment, the cells were fixed with 2% paraformaldehyde and subsequently stained with the DNA stain Hoechst 33342. The stained cover slips were transferred onto glass slides, and quantitative cell bioimaging was utilized to determine the number of amastigotes per 500 cells using a CellInsight CX5 High Content screening platform.

On to `O=C(NO)C(c1ccccc1)c1c(-c2ccc3ccccc3c2)[nH]c2ccccc12` (centres unmarked) [Compound 2, N-hydroxy-2-(2-(naphthalen-2-yl)-1H-indol-3-yl)-2-phenylacetamide], for which, in the experiment on T. cruzi epimastigotes [1], the “Concentration at which T. cruzi epimastigote death is greater than or equal to ~99%” value turned out to be 6 µM. Moreover, in the experiment on T. cruzi epimastigotes [2], the MIC is ~6 µM (≈ 2.35 µg/mL). In addition, the IC50 in the experiment with Jurkat cells stood at 7.97 ± 1.06 µM; in the experiment with ARPE cells it was 14.8 ± 1.13 µM. Also, the “T. cruzi infection in VERO cells” value in experiment [3] was “eradication of T. cruzi infection”. In addition, the “T. gondii in ARPE cells” value in experiment [4] (2 μM) and in experiment [4] (5 μM) was “clearance of T. gondii from ARPE cells” each time. Also, the “T. gondii infection of ARPE cells” value is recorded as “cleared ARPE cells of T. gondii infection” in experiment [4] (5 μM, 3 days) and “cleared ARPE cells of T. gondii infection” in experiment [4] (5 μM, 5 days). For the same compound, the “intracellular proliferation of T. cruzi” value in experiment [5] is recorded as “prevented intracellular proliferation of T. cruzi”. The “total number of parasites per cell” value in the experiment on L. major-infected MDMs is reported as “decreased the total number of parasites per cell in a dose dependent manner”.
